# Results taken from PubChem BioAssay AID1259407 (Chemical Carcinogenesis Research Information System (CCRIS), 2018).
# Active and inactive are the calls of the source. How the calls were made is not given here.
# Test system: CCRIS mutagenicity, Ames/micronucleus/aberration tests
# Test: CCRIS mutagenicity studies
# Text: The CCRIS database contains chemical records with carcinogenicity, mutagenicity, tumor promotion, and tumor inhibition test results. It was developed by the National Cancer Institute (NCI). Data are derived from studies cited in primary journals, current awareness tools, NCI reports, and other sources. Test results have been reviewed by experts in carcinogenesis and mutagenesis.
# CCRIS provides historical information from the years 1985 - 2011. It is no longer updated.
# This is an archive assay for CCRIS mutagenicity studies.
# [1] = Test System: AMES SALMONELLA TYPHIMURIUM, Strain/Indicator: TA98, Metabolic Activation: NONE, Method: STANDARD PLATE
# [2] = Test System: AMES SALMONELLA TYPHIMURIUM, Strain/Indicator: TA98, Metabolic Activation: RAT, LIVER, S-9, AROCLOR 1254, Method: STANDARD PLATE
# [3] = Test System: AMES SALMONELLA TYPHIMURIUM, Strain/Indicator: TA100, Metabolic Activation: NONE, Method: STANDARD PLATE
# [4] = Test System: AMES SALMONELLA TYPHIMURIUM, Strain/Indicator: TA100, Metabolic Activation: RAT, LIVER, S-9, AROCLOR 1254, Method: STANDARD PLATE
# [5] = Test System: AMES SALMONELLA TYPHIMURIUM, Strain/Indicator: TA1535, Metabolic Activation: NONE, Method: STANDARD PLATE
# [6] = Test System: AMES SALMONELLA TYPHIMURIUM, Strain/Indicator: TA1535, Metabolic Activation: RAT, LIVER, S-9, AROCLOR 1254, Method: STANDARD PLATE
# [7] = Test System: AMES SALMONELLA TYPHIMURIUM, Strain/Indicator: TA1537, Metabolic Activation: NONE, Method: STANDARD PLATE
# [8] = Test System: AMES SALMONELLA TYPHIMURIUM, Strain/Indicator: TA1537, Metabolic Activation: RAT, LIVER, S-9, AROCLOR 1254, Method: STANDARD PLATE
# [9] = Test System: AMES SALMONELLA TYPHIMURIUM, Strain/Indicator: TA1538, Metabolic Activation: NONE, Method: STANDARD PLATE
# [10] = Test System: AMES SALMONELLA TYPHIMURIUM, Strain/Indicator: TA1538, Metabolic Activation: RAT, LIVER, S-9, AROCLOR 1254, Method: STANDARD PLATE
# [11] = Test System: AMES SALMONELLA TYPHIMURIUM, Strain/Indicator: TA97, Metabolic Activation: NONE, Method: PREINCUBATION
# [12] = Test System: AMES SALMONELLA TYPHIMURIUM, Strain/Indicator: TA98, Metabolic Activation: NONE, Method: PREINCUBATION
# [13] = Test System: AMES SALMONELLA TYPHIMURIUM, Strain/Indicator: TA100, Metabolic Activation: NONE, Method: PREINCUBATION
# [14] = Test System: AMES SALMONELLA TYPHIMURIUM, Strain/Indicator: TA1535, Metabolic Activation: NONE, Method: PREINCUBATION
Structure (SMILES),mutagenic call [1],mutagenic call [2],mutagenic call [3],mutagenic call [4],mutagenic call [5],mutagenic call [6],mutagenic call [7],mutagenic call [8],mutagenic call [9],mutagenic call [10],mutagenic call [11],mutagenic call [12],mutagenic call [13],mutagenic call [14],also measured
[O]=[V](=[O])[OH],–,–,–,–,–,–,–,–,–,–,–,–,–,–,"mutagenic call (Test System: AMES SALMONELLA TYPHIMURIUM, Strain/Indicator: TA100, Metabolic Activation: NONE, Method: FLUCTUATION TEST): active; positive; mutagenic call (Test System: AMES SALMONELLA TYPHIMURIUM, Strain/Indicator: TA1535, Metabolic Activation: NONE, Method: STANDARD PLATE (PH 7.8, MEDIUM WITH TRIMETAPHOSPHATE IONS)): active; positive; mutagenic call (Test System: CHINESE HAMSTER G12, Strain/Indicator: G12/6-THIOGUANINE, Metabolic Activation: NONE): active; positive; mutagenic call (Test System: CHINESE HAMSTER V-79, Strain/Indicator: V-79/6-THIOGUANINE, Metabolic Activation: MOUSE, LIVER, S-9): inactive; negative; mutagenic call (Test System: E. COLI, Strain/Indicator: WP2 UVRA, Metabolic Activation: NONE, Method: SPOT TEST): inactive; negative"
Nc1ccc(N=Nc2ccc(N)cc2)cc1,inactive; negative,active; positive,inactive; negative,inactive; negative,inactive; negative,inactive; negative,inactive; negative,inactive; negative,inactive; negative,active; positive,–,–,–,–,"mutagenic call (Test System: AMES SALMONELLA TYPHIMURIUM, Strain/Indicator: TA98, Metabolic Activation: HAMSTER, LIVER, S-9, AROCLOR 1254, Method: STANDARD PLATE): active; positive; mutagenic call (Test System: AMES SALMONELLA TYPHIMURIUM, Strain/Indicator: TA98, Metabolic Activation: RAT, LIVER, S-9, AROCLOR 1254, Method: PREINCUBATION): active; positive"
CCCCCc1cc(O)c2c(c1)OC(C)(C)[C@@H]1CCC(C)=C[C@@H]21,–,–,–,–,–,–,–,–,–,–,inactive; negative,inactive; negative,inactive; negative,inactive; negative,"mutagenic call (Test System: AMES SALMONELLA TYPHIMURIUM, Strain/Indicator: TA97, Metabolic Activation: HAMSTER, LIVER, S-9, AROCLOR 1254 (10 OR 30%), Method: PREINCUBATION): inactive; negative; mutagenic call (Test System: AMES SALMONELLA TYPHIMURIUM, Strain/Indicator: TA97, Metabolic Activation: RAT, LIVER, S-9, AROCLOR 1254 (10 OR 30%), Method: PREINCUBATION): inactive; negative; mutagenic call (Test System: AMES SALMONELLA TYPHIMURIUM, Strain/Indicator: TA98, Metabolic Activation: HAMSTER, LIVER, S-9, AROCLOR 1254 (10 OR 30%), Method: PREINCUBATION): inactive; negative; mutagenic call (Test System: AMES SALMONELLA TYPHIMURIUM, Strain/Indicator: TA98, Metabolic Activation: RAT, LIVER, S-9, AROCLOR 1254 (10 OR 30%), Method: PREINCUBATION): inactive; negative; mutagenic call (Test System: AMES SALMONELLA TYPHIMURIUM, Strain/Indicator: TA100, Metabolic Activation: HAMSTER, LIVER, S-9, AROCLOR 1254 (10 OR 30%), Method: PREINCUBATION): inactive; negative; mutagenic call (Test System: AMES SALMONELLA TYPHIMURIUM, Strain/Indicator: TA100, Metabolic Activation: RAT, LIVER, S-9, AROCLOR 1254 (10 OR 30%), Method: PREINCUBATION): inactive; negative; mutagenic call (Test System: AMES SALMONELLA TYPHIMURIUM, Strain/Indicator: TA1535, Metabolic Activation: HAMSTER, LIVER, S-9, AROCLOR 1254 (10 OR 30%), Method: PREINCUBATION): inactive; negative; mutagenic call (Test System: AMES SALMONELLA TYPHIMURIUM, Strain/Indicator: TA1535, Metabolic Activation: RAT, LIVER, S-9, AROCLOR 1254 (10 OR 30%), Method: PREINCUBATION): inactive; negative"
O[C@H]1[C@H]2O[C@H]2c2c(c3ccccc3c3ccccc23)[C@@H]1O,–,–,–,–,–,–,–,–,–,–,active; positive,active; positive,active; positive,–,"mutagenic call (Test System: AMES SALMONELLA TYPHIMURIUM, Strain/Indicator: TA104, Metabolic Activation: NONE, Method: PREINCUBATION): active; positive; mutagenic call (Test System: CHINESE HAMSTER V-79, Strain/Indicator: V-79/6-THIOGUANINE, Metabolic Activation: NONE): active; positive"
CCN1CCOCC1,–,–,–,–,–,–,–,–,–,–,–,inactive; negative,inactive; negative,inactive; negative,"mutagenic call (Test System: AMES SALMONELLA TYPHIMURIUM, Strain/Indicator: TA98, Metabolic Activation: HAMSTER, LIVER, S-9, AROCLOR 1254 (10%), Method: PREINCUBATION): inactive; negative; mutagenic call (Test System: AMES SALMONELLA TYPHIMURIUM, Strain/Indicator: TA98, Metabolic Activation: RAT, LIVER, S-9, AROCLOR 1254 (10%), Method: PREINCUBATION): inactive; negative; mutagenic call (Test System: AMES SALMONELLA TYPHIMURIUM, Strain/Indicator: TA100, Metabolic Activation: HAMSTER, LIVER, S-9, AROCLOR 1254 (10%), Method: PREINCUBATION): inactive; negative; mutagenic call (Test System: AMES SALMONELLA TYPHIMURIUM, Strain/Indicator: TA100, Metabolic Activation: RAT, LIVER, S-9, AROCLOR 1254 (10%), Method: PREINCUBATION): inactive; negative; mutagenic call (Test System: AMES SALMONELLA TYPHIMURIUM, Strain/Indicator: TA1535, Metabolic Activation: HAMSTER, LIVER, S-9, AROCLOR 1254 (5 OR 30%), Method: PREINCUBATION): active; positive; mutagenic call (Test System: AMES SALMONELLA TYPHIMURIUM, Strain/Indicator: TA1535, Metabolic Activation: HAMSTER, LIVER, S-9, AROCLOR 1254 (10%), Method: PREINCUBATION): active; positive; mutagenic call (Test System: AMES SALMONELLA TYPHIMURIUM, Strain/Indicator: TA1535, Metabolic Activation: RAT, LIVER, S-9, AROCLOR 1254 (5 OR 30%), Method: PREINCUBATION): active; positive; mutagenic call (Test System: AMES SALMONELLA TYPHIMURIUM, Strain/Indicator: TA1535, Metabolic Activation: RAT, LIVER, S-9, AROCLOR 1254 (10%), Method: PREINCUBATION): active; positive; mutagenic call (Test System: AMES SALMONELLA TYPHIMURIUM, Strain/Indicator: TA1537, Metabolic Activation: HAMSTER, LIVER, S-9, AROCLOR 1254 (10%), Method: PREINCUBATION): inactive; negative; mutagenic call (Test System: AMES SALMONELLA TYPHIMURIUM, Strain/Indicator: TA1537, Metabolic Activation: NONE, Method: PREINCUBATION): inactive; negative; mutagenic call (Test System: AMES SALMONELLA TYPHIMURIUM, Strain/Indicator: TA1537, Metabolic Activation: RAT, LIVER, S-9, AROCLOR 1254 (10%), Method: PREINCUBATION): inactive; negative"
CCCCCCCCCCCCOC(=O)CCSCCC(=O)OCCCCCCCCCCCC,inactive; negative,inactive; negative,inactive; negative,inactive; negative,inactive; negative,inactive; negative,inactive; negative,inactive; negative,inactive; negative,inactive; negative,–,–,–,–,"mutagenic call (Test System: E. COLI, Strain/Indicator: WP2, Metabolic Activation: NONE, Method: STANDARD PLATE): inactive; negative; mutagenic call (Test System: E. COLI, Strain/Indicator: WP2, Metabolic Activation: RAT, LIVER, S-9, AROCLOR 1254, Method: STANDARD PLATE): inactive; negative"
